Results: patent US11022604B2, “Dock derived compound against laminin receptor (37 LR) and uses thereof” (Purdue Research Foundation, priority 2017, dated 2021)

Experiments:
[1] = system: PC-3 cells; experiment: RT-qPCR of PEDF-signaling associated genes; assay type: cell-based; settings: PC-3, 50 μM, 48 hours
Procedure: Expression of PEDF-signaling associated genes from PC-3 cells treated with 50 μM C3, compared to DMSO control and normalized to GAPDH (n=3, mean±SEM). A Holm-Sidak multiple t test was used for statistical analysis (*p<0.05,**O<0.01, ***<0.001). […] Average tube count for 0.1% DMSO, 0.5% DMSO, and 1, 10 and 50 μM treatment with C3 (n=7, mean±SEM). 1 and 10 μM C3 were compared with respective 0.5% DMSO (unpaired two-tailed t test, ****<0.0001). 50 μM C3 was compared with respective 0.1% DMSO (unpaired two-tailed t test p<0.0001).
RT-qPCR. PC-3 cells were seeded in 6 well plates at 3×10^5 cells per well and incubated with 50 μM C3 or DMSO equivalent in 1×RPMI-1640, 1× anti-anti, and 2% FBS (ThermoFisher) for 48 hours. PC-3 cells were lifted using 20 mM EDTA in 1×DPBS and pelleted before isolating total RNA using the RNeasy Mini Kit (Qiagen). 1 μg of RNA per sample was reverse transcribed using the amfiRivert cDNA synthesis master mix (GenDEPOT). Real-time PCR wells contained 1 μL cDNA template, 2×SYBR Green Master Mix (Applied Biosystems), and 20 μM forward and reverse primers. Primer sequences are provided in Table 2. qRT-PCR was performed on an Eppendorf Realplex 2S (Eppendorf), using: 40×95° C. for 3 mins; 95° C. for 3 s; 60° C. for 30 s; 72° C. for 8 s and analyzed using EP Realplex software (version 2.2). Fold changes were normalized to GAPDH using the ddCT method.
Genes involved in migration/invasion and/or extracellular matrix (ECM) communication also were assayed.

[2] = system: PC-3 cells; experiment: Wound healing (scratch) assay; assay type: cell-based; settings: PC3, 50 uM, 48 h
Procedure: PC-3 cells were treated with 1, 10, 50 μM C3 or DMSO control after scratch formation and images were recorded using a brightfield microscope as described in the methods. […] Brightfield images were quantified using the t-scratch program and represented as % scratch closure after 48 hours of migration compared to a 0 hour control (n=9, mean±SEM). A one-way ANOVA test was used for statistical analysis (p<0.05).
Wound Healing Assay. PC-3 cells were seeded in 6 well plates at 3×10^5 cells per well in complete media until the cells reached confluency. Three horizontal and three vertical scratches were made in the confluent monolayers using a standard 200 μL pipette tip and cellular debris were removed by washing with 1×DPBS three times. 1×RPMI-1640 supplemented with C3 or DMSO was added and cells were incubated for 48 hours as described previously. […] Images were uploaded and analyzed for scratch geometry using the tscratch program (96). First, global thresholding was performed, then individual images were manually inspected for single image threshold adjustment and scratch geometries were quantified. […] The samples were analyzed using the Dionex UltiMate 3000 RSLC Nano System coupled to the Q Exactive™ HF Hybrid Quadrupole-Orbitrap MS (Thermo Scientific). […] Label free quantitation (LFQ) was performed using a minimum ratio count of 2 with fast LFQ. […]

## O=C(c1cc(F)cc2c1OCOC2)N1CCN(C2c3ccccc3-c3ccccc32)CC1 [Compound C3, [4-(9h-fluoren-9-yl)piperazino](6-fluoro-4h-1,3-benzodioxin-8-yl)methanone]
[1]
  VEGF mRNA, fold change: ~4 FC
  VEGFR2 transcription, fold change: > −15 fold change
  thrombospondin-1 (THBS1) mRNA, fold change: > 10 FC
[2]
  prevention of wound closure: ~70%
